# Entries after “also recorded” stand apart in the source; their conditions may differ.
# Legend:
# [1] = system: CRF-induced CREB phosphorylation in striatal neurons; assay: Block of CRF-induced CREB phosphorylation; type: cell-based, rat; settings: 30 min prior and concurrently, CRF 15 min
# [2] = system: ISO-induced CREB phosphorylation in striatal neurons; assay: Block of isoproterenol-induced CREB phosphorylation; type: cell-based, rat; settings: gallein 75 µM; ISO 10 µM
# Procedure: (§1) Protocols followed are those described previously, using a well-characterized commercially available monoclonal antibody directed against the Ser133 phosphorylated version of CREB (see below), [66], [70]–[72]. Briefly, cultured striatal neurons (8–10 d.i.v.) were incubated in a Tyrode's solution containing TTX (1 µM) and AP-5 (25 µM) at room temperature for 1.5 hr. Unless noted otherwise, cell stimulations were performed as follows: vehicle (15 min); agonist stimulations were 15 min, antagonist exposure was 30 min prior to agonist stimulation, except PTX and CTX (18 hr pre-treatment), and concurrently with agonist stimulation. […] Data were quantified with Leica LAS AF (version 1.9.0; Leica).
# (§2) The confocal excitation and detection settings for each experiment were determined using coverslips stimulated for 5 min with 60 mM potassium (60 K) to establish a “ceiling” for pCREB intensity. A baseline was determined via the vehicle (NS) group, so that each assay has an internal control. […] Neurons were readily discriminated from glia via size and morphology (see Figure 1 and Figure S1) and selected randomly using α-tubulin or MAP2 fluorescence, allowing the experimenter to remain blind to the CREB or pCREB signal. […] To analyze pCREB fluorescence intensity, the α-tubulin or MAP2 staining was used to draw a region of interested (ROI) of interest outlining the nucleus of each neuron. […]
# Rac1 = system: Rac1; design: dose or concentration left out as unconfirmed; settings: cited from earlier work
# From the text: (§3) Supplement pone.0018114.s002.xlsx, sheet "Sheet1" | column: Target (notes)
# PI3K = settings: cited from earlier work
# From the text: as §3
# [3] = system: ISO-induced CREB phosphorylation in striatal neurons; design: dose or concentration left out as unconfirmed; settings: ref unpublished observations; cited from earlier work
# From the text: as §3
# [4] = system: forskolin (FSK)-induced CREB phosphorylation; assay: Block of forskolin-induced CREB phosphorylation; type: cell-based, rat; settings: H89 2 µM; forskolin 25 µM
# Procedure: as §1, §2
# MAPKAP = settings: cited from earlier work
# From the text: as §3
# PKA = settings: cited from earlier work
# From the text: as §3
# PKB = settings: cited from earlier work
# From the text: as §3
# ROCK-II = settings: cited from earlier work
# From the text: as §3
# Ras = settings: cited from earlier work
# From the text: as §3
# [5] = system: BDNF-induced NFAT activation; settings: 100 nM; cited from earlier work
# From the text: as §3
smiles,measurement,setting,value
O=C1OC2(c3ccccc31)c1ccc(O)c(O)c1Oc1c2ccc(O)c1O [gallein],effect on CRF-induced CREB phosphorylation,[1]; inhibitor 75 µM,CRF failed to induce CREB phosphorylation in the presence of this drug; also recorded: eliminated CRF-induced CREB phosphorylation
same,effect on ISO-induced CREB phosphorylation,[2],"should not affect ISO-dependent CREB phosphorylation. Indeed, this was in fact the case; also recorded: had no effect on CREB phosphorylation"
same,Rac1 activation inhibition,Rac1,inhibits PI3K and Rac1 activation
same,PI3K inhibition,PI3K,inhibits PI3K
O=C1Nc2ccc(I)cc2/C1=C/c1cc(Br)c(O)c(Br)c1 [GW5074],effect on CRF-induced CREB phosphorylation,"[1]; inhibitor 1 µM, data not shown",failed to affect CRF-induced CREB phosphorylation
same,effect on ISO-induced pCREB in striatal neurons,[3],c-Raf (1 mM blocks ISO-induced pCREB in striatal neurons)
O=S(=O)(NCCNC/C=C/c1ccc(Br)cc1)c1cccc2cnccc12 [H89],effect on CRF-induced CREB phosphorylation,[1]; inhibitor 2 µM,failed to block CRF-induced CREB phosphorylation
same,effect on forskolin-induced CREB phosphorylation,[4],attenuated forskolin (FSK)-induced CREB phosphorylation
same,IC50,MAPKAP,> 270 nM
same,IC50,PKA,135 nM
same,IC50,ROCK-II,> 270 nM
Cc1cc(C(=O)N2CCN(c3cccc(Cl)c3)CC2)n(-c2ccccc2)n1 [XRP44X],effect on CRF-induced CREB phosphorylation,[1]; inhibitor 2 µM,failed to affect CRF-induced CREB phosphorylation
same,IC50,Ras,10 to 20 nM
COC(=O)[C@@]1(O)C[C@H]2O[C@]1(C)n1c3ccccc3c3c4c(c5c6ccccc6n2c5c31)C(=O)NC4 [K252a],effect on CRF-induced CREB phosphorylation,[1]; inhibitor 100 nM,failed to affect CRF-induced CREB phosphorylation
same,effect on BDNF-induced NFAT activation,[5],Tyrosine Kinase (100 nM prevents BDNF-induced NFAT activation)
